This note sets out measurements from patent US20210214731A1, “METHODS FOR TREATING CANCER” (President and Fellows of Harvard College, priority 2019, published 2021).

Test [1] has as its system MLL-AF9 AML. Kind of test: In vitro growth of MLL-AF9 AML. In kind it is cell-based, mouse. The following applies: for effect of inhibitor on in vitro growth of MLL-AF9 with MCT4-KO: combined with MCT4-KO versus control gRNA (FIG. 6D). As to the method: Retroviral transduction model of MLL-AF9 or HoxA9-Meis1 AML were generated by infecting normal mouse GMP (Lin^−Kit^+Sca-1^−CD34^+CD16/32^+) (FASC antibodies summarized in Supplemental Table 4) by MSCV constructs. Infected cells were injected into normal C57BL/6J. Leukemic BM was harvested and expanded ex vivo in RPMI-1640 media supplemented with 10% FBS, 1% P/S, recombinant IL-3 (10 ng/ml) and SCF (100 ng/ml).

Test [2] relates to MCT4 expression in MLL-AF9 AML. The test can be described thus: MCT4 mRNA (Q-PCR) and protein (Western blot) expression in MLL-AF9 AML upon inhibitor treatment. In kind it is cell-based, mouse. The following applies: MLL-AF9 AML in vitro (FIG. 9G). As to the method: Cells were lyzed in 1×RIPA lysis buffer (Cell Signaling) with protease and phosphatase inhibitors. Cell lysate was centrifuged at 13000 rpm for 10 mins. Supernatant was collected and denatured in SDS-loading buffer with boiling for 10 mins. Cell lysates were separated, transferred and blotted with primary and horseradish peroxidase (HRP)-conjugated secondary antibodies (Supplemental Table 4). Hybridization signals were visualized with Amersham ECL Western blot detection reagents (GE Healthcare Amersham) or Luminata Forte Western HRP substrate (EMD Millipore) and captured by Hyperfilm™ ECL (GE Healthcare Amersham). Densitometric analysis of the bands was performed by ImageJ 1.8.0v.
(§1) Cell was washed twice with PBS and subjected to RNA purification using RNeasy Plus Mini Kit (Qiagen) according to the manufacturers' protocol. Extracted total RNA was then subjected to reverse transcription using SuperScript IV VILO Master Mix (Thermo Fisher Scientific) according to the manufacturers' protocol. Synthesized cDNA was then used for the Q-PCR using gene-specific primers (Supplemental Table 3) and SYBR™ Green PCR Master Mix. The reaction was run and analyzed by StepOnePlus Real-Time PCR System.
(Immunoblotting shows a protein as a band on a membrane.)

For test [3], the system named is MLL-AF9 AML. The test can be described thus: Glycolysis and Mito stress analysis (Seahorse ECAR/OCR). In kind it is cell-based, mouse. As to conditions: MLL-AF9 AML in vitro, LDHA inhibition (FIG. 6A). As for the experimental part:
Glycolysis stress and Mito stress of normal Lin^− BM cells and AML were examined by Seahorse XF analyzer (Agilent) according to the manufacturers' protocol. In brief, the suspension cells were seeded onto a Cell-Tak (Corning) coated Seahorse XF Microplate in Seahorse XF Base Medium with appropriate supplement (Glycolysis Stress test: 1 mM glutamine; Mito stress test: 1 mM pyruvate, 2 mM glutamine and 10 mM glucose) and centrifuged at 200×g for 5 mins Different compounds were injected for the ECAR and OCR profiling (Glycolysis Stress test: 10 mM glucose, 1 μM Oligomycin and 50 mM 2DG; Mito Stress test: 1 μM Oligomycin, 0.5 μM FCCP and 0.5 μM Antimycin A). The data was eventually analyzed by Seahorse Wave Desktop 2.6 (Agilent).

Test [4] relates to MCT4 expression in NOMO-1. The test can be described thus: Q-PCR of MCT4 mRNA expression in NOMO-1. The following applies: NOMO-1 (FIG. 10G). In kind it is cell-based, human.
Source text: (§2) Human AML cell lines (K562, KG1, ML2, Kasumi-1, MOLM-13, MOLM-14, MV4-11, THP-1, MONO-MACE, HL-60, NB4, U937 and NOMO-1) were purchased from the American Type Culture Collection (ATCC) and cultured in RPMI-1640 media supplemented with 10% FBS and 1% penicillin/streptomycin (P/S).
as §1

The test system of test [5] is MCT4 promoter in MLL-AF9 AML. Kind of test: ChIP-PCR of enrichment on MCT4 promoter in MLL-AF9 AML. In kind it is cell-based, mouse. As to the method: ChIP assays were performed in hematopoietic cells as previously described (Kim et al., 2008) using Pierce™ Protein G Agarose (Thermo Fisher Scientific). In brief, the cell suspension was fixed with 1% formaldehyde for 7 mins then neutralized by glycine. The fixed cell was washed with cold PBS. The cell pellet was then sonicated in SDS ChIP buffer. The supernatant was collected and pre-cleared with protein G agarose. After pre-clearing, a ChIP reaction using different antibodies (1:100, summarized in Supplemental Table 4) was added to the lysate and incubated at 4° C. overnight Immunoprecipitated complexes were successively washed with buffers and then eluted using SDS elution buffer at 65° C. overnight to reverse crosslink protein-DNA complex. The samples were treated with RNase A and Proteinase K, then extracted by phenol-chloroform isoamyl alcohol and precipitated. Finally, the pellet was resuspended in 20 μl TE buffer.
The DNA was then subjected to Q-PCR analysis using specific primers (Supplemental Table 3) and SYBR™ Green PCR Master Mix (Thermo Fisher Scientific). Input genomic DNA was used for the reference sample. The reaction was run and analyzed by StepOnePlus Real-Time PCR System (Thermo Fisher Scientific). Mouse or human Gfi1b was included as a negative control.

Another test has as its system NOMO-1. Kind of test: In vitro growth of NOMO-1. The class given is cell-based, human. The following applies: NOMO-1 (FIG. 10H).
Source text: as §2

The next test deals with THP-1. The test can be described thus: In vitro growth of THP-1. As to conditions: THP-1 (FIG. 10H). In kind it is cell-based, human.
Source text: as §2

For a further test, the system named is MCT4 expression in THP-1. The test can be described thus: Q-PCR of MCT4 mRNA expression in THP-1. In kind it is cell-based, human. The following applies: THP-1 (FIG. 10G).
Source text: as §2, §1

Regarding `O=CC[C@@H](O)[C@H](O)[C@H](O)CO` [2DG, 2-deoxyglucose], the “effect of inhibitor on in vitro growth of MLL-AF9 with MCT4-KO” value in the test with MLL-AF9 AML [1] is recorded as “increased the effect”.
The same measure, in the same setting: next, `NC(=O)c1ccc(N)nc1` [6AN, 6-aminonicotinamide]: “increased the effect”.
As to `CC(C)N(C[C@H]1O[C@@H](n2cnc3c(N)ncnc32)[C@H](O)[C@@H]1O)[C@H]1C[C@@H](CCc2nc3cc(C(C)(C)C)ccc3[nH]2)C1` [EPZ-5676], in test [2], the MCT4 expression result is “not seen”.
On to `CCCc1c(O)c(O)c(C(=O)O)c2cc(Cc3ccccc3)c(C)cc12` [FX11], for which, in the test on MLL-AF9 AML [3], the “extracellular acidification rate (ECAR)” value is given as “decreased” and the “oxygen consumption rate (OCR)” value is given as “increased”.
In the case of `Cc1sc2c(c1C)C(c1ccc(Cl)cc1)=N[C@@H](CC(=O)OC(C)(C)C)c1nnc(C)n1-2` [JQ-1], the “expression of MCT4” value (in test [4]; in the test with MCT4 expression in THP-1) was “suppressed” throughout. Besides, the “BRD4 enrichment on the MCT4 promoter” value in test [5] (mouse MLL-AF9 AML (FIG. 9I)) is given as “reduced”. Also, the “H3K27ac enrichment on the MCT4 promoter” value in test [5] (mouse MLL-AF9 AML (FIG. 9J)) is on record as “reduced”. Moreover, the growth result with NOMO-1 and in the test on THP-1 was “suppressed” throughout. The “growth of MLL-AF9 AML” value in the test with MLL-AF9 AML [1] (JQ-1 treatment (FIG. 9H)) is listed as “reduced the growth of MLL-AF9 AML in dose dependent manner”. In addition, the MCT4 expression result in test [2] is given as “suppressed”.
